This passage reports activation and inhibition results from patent US8822517B2, “Arylosulfonamides for the treatment of CNS diseases” (Adamed SP. Z O.O., priority 2010, dated 2014).

Assay [1] concerns the target T1, serotoninergic 5-HT2A receptor (Homo sapiens, UniProt P28223). Kind of assay: Cellular functional assay, serotoninergic 5-HT2A receptor (agonism/antagonism). The class given is cell-based. The conditions noted are these: for activation at 1 µM: read-out: 5-HT2A -ag [%]; for inhibition at 1 µM: read-out: 5-HT2A -antag [%]. On the procedure:
(§1) […]. The compounds were tested at the concentration of 1×10^−6M.
(§2) Conditions and methodology (by reference to the literature) of cellular functional assays are given in Table 13 and the tests results for representative compounds are given in Table 14 (dopaminergic receptor D2), in Table 15 (dopaminergic receptor D3), in Table 16 (serotoninergic receptor 5-HT1A), in Table 17 (serotoninergic receptor 5-HT2A), in Table 18 (serotoninergic receptor 5-HT6), in Table 19 (serotoninergic receptor 5-HT7), in Table 20 (adrenergic α1 receptor), in Table 21 (adrenergic α2C receptor), in Table 22 (histaminergic H1 receptor) and in Table 23 (serotoninergic 5-HT2C receptor). In the Tables ag refers to agonism, and antag to antagonism).

Assay [2] deals with T2, serotonine transporter (SERT) receptor (Homo sapiens, UniProt P31645).
T2 construct: expressed in transfected cells; host or cells: CHO cells
T2 sequence (P31645 whole entry): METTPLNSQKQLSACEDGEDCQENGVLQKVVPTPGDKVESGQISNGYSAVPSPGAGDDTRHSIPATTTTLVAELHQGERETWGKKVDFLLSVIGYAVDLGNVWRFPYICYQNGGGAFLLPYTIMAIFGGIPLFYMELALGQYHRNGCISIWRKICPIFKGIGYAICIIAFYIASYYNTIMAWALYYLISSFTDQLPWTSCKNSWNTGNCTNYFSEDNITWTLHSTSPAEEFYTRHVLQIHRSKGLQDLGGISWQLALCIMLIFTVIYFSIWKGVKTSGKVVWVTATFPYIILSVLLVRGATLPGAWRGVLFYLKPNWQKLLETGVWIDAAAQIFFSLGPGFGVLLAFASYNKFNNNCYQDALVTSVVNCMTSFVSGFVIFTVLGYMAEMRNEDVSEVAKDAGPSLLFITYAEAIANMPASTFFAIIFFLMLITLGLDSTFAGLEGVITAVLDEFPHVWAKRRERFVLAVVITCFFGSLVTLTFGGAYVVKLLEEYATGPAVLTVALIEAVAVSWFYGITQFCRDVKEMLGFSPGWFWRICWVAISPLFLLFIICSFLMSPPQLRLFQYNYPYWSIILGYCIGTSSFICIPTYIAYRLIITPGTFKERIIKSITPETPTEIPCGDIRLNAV
The experiment in a line: Binding assay SERT (h), [3H]imipramine, CHO cells. To be noted: read-out: SERT [%]. The procedure, abridged:
(§3)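 Test conc. 1×10^−6 M. Read-out by scintillation counting. Specific = total − nonspecific (excess cold ligand).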

The target of assay [3] is serotoninergic 5-HT7 receptor (Homo sapiens, UniProt P34969). The experiment in a line: Cellular functional assay, serotoninergic 5-HT7 receptor (agonism/antagonism). The class given is cell-based. The conditions noted are these: for activation at 1 µM: agonist effect, percent of control specific agonist response, compounds tested at 1×10^−6M, read-out: 5-HT7-ag [%]; for inhibition at 1 µM: read-out: 5-HT7-antag. [%]. On the procedure:
(§4) The compounds were tested at the concentration of 1×10^−6M.
(§5) In the Tables ag refers to agonism, and antag to antagonism).

In a further assay the target is T3, adrenergic α1A receptor (Homo sapiens, UniProt P35348).
T3 sequence (P35348 1-466): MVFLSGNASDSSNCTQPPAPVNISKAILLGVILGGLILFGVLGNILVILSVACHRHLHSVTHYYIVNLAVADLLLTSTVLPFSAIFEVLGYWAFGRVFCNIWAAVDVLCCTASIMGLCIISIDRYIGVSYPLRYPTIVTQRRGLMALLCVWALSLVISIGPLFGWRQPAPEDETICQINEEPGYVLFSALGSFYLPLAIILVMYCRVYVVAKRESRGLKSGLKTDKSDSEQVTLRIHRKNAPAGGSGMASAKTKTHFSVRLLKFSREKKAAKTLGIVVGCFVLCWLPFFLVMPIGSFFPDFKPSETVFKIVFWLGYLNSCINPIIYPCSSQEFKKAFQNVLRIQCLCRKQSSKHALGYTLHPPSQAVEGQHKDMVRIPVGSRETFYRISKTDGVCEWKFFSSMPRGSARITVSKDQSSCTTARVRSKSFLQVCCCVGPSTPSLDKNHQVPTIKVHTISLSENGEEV
The experiment in a line: Cellular functional assay, adrenergic α1A receptor (agonism/antagonism). Format: cell-based. The conditions noted are these: for activation at 1 µM: agonist effect, percent of control specific agonist response, compounds tested at 1×10^−6M, read-out: α1A -ag [%]; for inhibition at 1 µM: read-out: α1A -antag. [%]. On the procedure:
as §1, §2

Assay [4] concerns the target T1, serotoninergic 5-HT2A receptor. Kind of assay: Binding assay 5-HT2A (h), [3H]ketanserin, HEK-293 cells. Further details: expressed in transfected cells; host or cells: HEK-293 cells. The conditions noted are these: read-out: 5-HT2A. The procedure, abridged: as §3
For assay [5], the target named is T4, adrenergic α2C receptor (Homo sapiens, UniProt P18825).
T4 sequence (P18825 1-462): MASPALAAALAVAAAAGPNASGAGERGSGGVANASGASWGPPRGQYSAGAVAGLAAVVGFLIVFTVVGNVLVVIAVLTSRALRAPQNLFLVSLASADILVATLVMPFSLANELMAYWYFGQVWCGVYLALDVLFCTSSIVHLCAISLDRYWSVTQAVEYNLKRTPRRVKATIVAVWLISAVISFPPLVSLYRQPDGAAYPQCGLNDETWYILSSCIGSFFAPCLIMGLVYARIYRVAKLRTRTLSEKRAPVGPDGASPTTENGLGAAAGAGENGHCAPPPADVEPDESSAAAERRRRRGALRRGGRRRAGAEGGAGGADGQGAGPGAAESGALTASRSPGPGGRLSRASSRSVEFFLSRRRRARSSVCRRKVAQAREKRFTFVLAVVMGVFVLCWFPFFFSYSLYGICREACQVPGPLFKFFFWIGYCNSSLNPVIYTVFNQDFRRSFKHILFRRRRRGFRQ
Kind of assay: Cellular functional assay, adrenergic α2C receptor (agonism/antagonism). The class given is cell-based. To be noted: for activation at 1 µM: agonist effect, percent of control specific agonist response, compounds tested at 1×10^−6M, read-out: α2C −ag [%]; for inhibition at 1 µM: read-out: α2C −antag. [%]. The method, then:
as §4, §5

Assay [6] has as its target T5, dopaminergic D2 receptor (Homo sapiens, UniProt P14416). The experiment in a line: Binding assay D2S (h), [3H]methyl-spiperone, HEK-293 cells. Also on record: expressed in transfected cells; host or cells: HEK-293 cells. The conditions noted are these: read-out: D2 [%]. The procedure, abridged:
as §3
Target sequence in this assay (P14416 1-414 isoform P14416-2): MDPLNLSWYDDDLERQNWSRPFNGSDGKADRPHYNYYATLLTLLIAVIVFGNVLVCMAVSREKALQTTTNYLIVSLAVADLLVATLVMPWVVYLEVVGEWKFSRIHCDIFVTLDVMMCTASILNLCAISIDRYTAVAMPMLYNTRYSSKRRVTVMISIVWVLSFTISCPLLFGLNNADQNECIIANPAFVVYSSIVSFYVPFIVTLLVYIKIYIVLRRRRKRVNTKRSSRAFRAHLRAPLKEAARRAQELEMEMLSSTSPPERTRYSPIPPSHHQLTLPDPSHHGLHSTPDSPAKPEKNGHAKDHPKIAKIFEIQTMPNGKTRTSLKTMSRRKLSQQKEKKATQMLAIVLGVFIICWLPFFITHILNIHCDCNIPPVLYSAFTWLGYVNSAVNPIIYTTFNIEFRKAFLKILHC

Another assay addresses dopaminergic D3 receptor (Homo sapiens, UniProt P35462). Kind of assay: Cellular functional assay, dopaminergic D3 receptor (agonism/antagonism). The class given is cell-based. To be noted: for inhibition at 1 µM: CHO, read-out: D3-antag. [%]; for activation at 1 µM: agonist effect, percent of control specific agonist response (300 nM dopamine for control), 1×10^−6 M, D3 (h), CHO cells, read-out: D3-ag [%]. On the procedure: as §4, §5

The target of the next assay is T6, muscarinic M3 receptor (Homo sapiens, UniProt P20309).
T6 construct: expressed in transfected cells; host or cells: CHO cells
T6 sequence (P20309 whole entry): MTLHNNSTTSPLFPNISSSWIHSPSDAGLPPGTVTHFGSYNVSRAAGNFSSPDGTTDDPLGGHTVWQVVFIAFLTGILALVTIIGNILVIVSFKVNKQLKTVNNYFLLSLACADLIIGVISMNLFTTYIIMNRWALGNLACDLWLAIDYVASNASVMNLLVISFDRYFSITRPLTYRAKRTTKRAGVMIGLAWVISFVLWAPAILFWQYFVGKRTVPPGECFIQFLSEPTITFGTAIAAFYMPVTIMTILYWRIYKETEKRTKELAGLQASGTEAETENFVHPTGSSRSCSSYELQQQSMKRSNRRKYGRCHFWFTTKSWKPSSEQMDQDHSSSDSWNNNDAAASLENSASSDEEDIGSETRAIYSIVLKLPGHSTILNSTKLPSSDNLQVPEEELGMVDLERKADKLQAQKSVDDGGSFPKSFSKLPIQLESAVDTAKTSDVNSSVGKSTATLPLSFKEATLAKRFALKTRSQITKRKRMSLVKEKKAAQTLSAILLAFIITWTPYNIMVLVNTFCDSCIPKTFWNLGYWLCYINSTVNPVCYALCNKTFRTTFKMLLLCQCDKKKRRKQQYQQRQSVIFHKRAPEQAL
The experiment in a line: Binding assay M3 (h), [3H]4-DAMP, CHO cells. The conditions noted are these: read-out: M3 [%]. The procedure, abridged: as §3

The target of assay [7] is T4, adrenergic α2C receptor. Kind of assay: Binding assay α2C (h), [3H]RX 821002, CHO cells. Further details: expressed in transfected cells; host or cells: CHO cells. To be noted: read-out: α2C [%]. The procedure, abridged: as §3
Assay [8] addresses T5, dopaminergic D2 receptor. Kind of assay: Cellular functional assay, dopaminergic D2 receptor (agonism/antagonism). The class given is cell-based. To be noted: HEK293; for activation at 1 µM: agonist effect, percent of control specific agonist response (3 μM dopamine for control), 1×10^−6 M, D2S (h), HEK-293 cells, read-out: D2-ag [%]; for inhibition at 1 µM: read-out: D2-antag. [%]. On the procedure: as §4, §5
Target sequence in this assay (P14416 whole entry): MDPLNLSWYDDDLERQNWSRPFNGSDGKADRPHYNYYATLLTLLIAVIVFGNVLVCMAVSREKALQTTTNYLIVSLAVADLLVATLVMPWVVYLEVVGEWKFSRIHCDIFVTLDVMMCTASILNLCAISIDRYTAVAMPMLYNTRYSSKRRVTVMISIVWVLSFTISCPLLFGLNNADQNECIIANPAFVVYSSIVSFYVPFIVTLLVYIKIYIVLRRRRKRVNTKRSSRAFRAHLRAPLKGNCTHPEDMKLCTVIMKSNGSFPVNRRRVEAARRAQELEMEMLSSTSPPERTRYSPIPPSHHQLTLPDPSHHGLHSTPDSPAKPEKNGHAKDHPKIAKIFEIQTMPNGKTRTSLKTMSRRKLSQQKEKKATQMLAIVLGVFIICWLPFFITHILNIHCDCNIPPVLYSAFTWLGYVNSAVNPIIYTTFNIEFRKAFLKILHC

Assay [9] deals with serotoninergic 5-HT6 receptor (Homo sapiens, UniProt P50406). Kind of assay: Cellular functional assay, serotoninergic 5-HT6 receptor (agonism/antagonism). Format: cell-based. To be noted: for activation at 1 µM: agonist effect, percent of control specific agonist response, compounds tested at 1×10^−6M, read-out: 5-HT6-ag [%]; for inhibition at 1 µM: read-out: 5-HT6-antag. [%]. On the procedure: as §4, §5
Chain of serotoninergic 5-HT6 receptor (P50406 whole entry): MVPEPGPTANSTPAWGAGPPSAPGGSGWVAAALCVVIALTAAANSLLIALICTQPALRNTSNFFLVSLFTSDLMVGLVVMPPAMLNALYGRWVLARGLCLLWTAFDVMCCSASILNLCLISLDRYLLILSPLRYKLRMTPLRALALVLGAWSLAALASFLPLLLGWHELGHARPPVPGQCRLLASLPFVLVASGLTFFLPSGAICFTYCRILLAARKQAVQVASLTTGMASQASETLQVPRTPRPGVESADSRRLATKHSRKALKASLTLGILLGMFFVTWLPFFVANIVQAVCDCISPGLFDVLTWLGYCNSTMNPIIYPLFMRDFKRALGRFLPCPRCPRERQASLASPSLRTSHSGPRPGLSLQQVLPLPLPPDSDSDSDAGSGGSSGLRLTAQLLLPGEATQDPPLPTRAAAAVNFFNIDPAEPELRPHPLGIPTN

T1 sequence (P28223 whole entry): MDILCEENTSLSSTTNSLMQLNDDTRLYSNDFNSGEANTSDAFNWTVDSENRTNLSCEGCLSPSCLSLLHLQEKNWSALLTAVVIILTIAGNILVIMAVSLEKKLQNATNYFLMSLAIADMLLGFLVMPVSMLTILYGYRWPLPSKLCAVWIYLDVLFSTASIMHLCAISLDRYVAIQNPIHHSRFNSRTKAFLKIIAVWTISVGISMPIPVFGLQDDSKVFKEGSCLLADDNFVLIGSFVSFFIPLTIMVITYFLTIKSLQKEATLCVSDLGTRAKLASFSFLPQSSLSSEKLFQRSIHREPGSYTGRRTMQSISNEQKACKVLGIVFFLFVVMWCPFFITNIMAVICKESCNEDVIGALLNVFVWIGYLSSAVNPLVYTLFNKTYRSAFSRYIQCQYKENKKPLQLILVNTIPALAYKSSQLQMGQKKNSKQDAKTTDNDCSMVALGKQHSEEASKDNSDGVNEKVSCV
Chain of dopaminergic D3 receptor (P35462 whole entry): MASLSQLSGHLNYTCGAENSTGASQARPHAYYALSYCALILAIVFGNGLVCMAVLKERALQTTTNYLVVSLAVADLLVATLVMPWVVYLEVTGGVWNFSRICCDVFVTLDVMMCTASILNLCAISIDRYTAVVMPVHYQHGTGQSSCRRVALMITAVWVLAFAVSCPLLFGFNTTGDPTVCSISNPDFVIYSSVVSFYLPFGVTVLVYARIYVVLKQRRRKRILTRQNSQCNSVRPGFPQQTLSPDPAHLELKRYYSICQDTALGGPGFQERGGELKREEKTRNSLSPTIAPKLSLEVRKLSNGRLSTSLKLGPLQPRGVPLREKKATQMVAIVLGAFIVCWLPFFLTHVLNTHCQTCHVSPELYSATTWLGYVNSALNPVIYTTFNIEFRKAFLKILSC
Chain of serotoninergic 5-HT7 receptor (P34969 whole entry): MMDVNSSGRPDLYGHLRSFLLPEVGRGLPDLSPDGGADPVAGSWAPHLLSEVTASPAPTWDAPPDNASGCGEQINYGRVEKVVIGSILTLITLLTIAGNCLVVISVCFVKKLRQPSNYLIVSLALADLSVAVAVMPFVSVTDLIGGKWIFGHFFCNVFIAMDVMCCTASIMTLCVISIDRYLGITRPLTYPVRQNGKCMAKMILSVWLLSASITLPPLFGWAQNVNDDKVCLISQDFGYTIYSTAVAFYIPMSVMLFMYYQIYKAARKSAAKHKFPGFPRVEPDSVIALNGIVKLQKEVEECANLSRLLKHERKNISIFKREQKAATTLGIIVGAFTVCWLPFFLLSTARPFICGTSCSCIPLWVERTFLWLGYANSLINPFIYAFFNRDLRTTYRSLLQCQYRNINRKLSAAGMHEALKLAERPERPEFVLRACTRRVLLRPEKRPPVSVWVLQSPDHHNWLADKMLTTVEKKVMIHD

For the compound `O=S(=O)(NCCCCN1CCN(c2cccc3[nH]ccc23)CC1)c1cc2ccccc2s1` [Compound 33, N-{4-[4-(1H-Indol-4-yl)piperazin-1-yl]butyl}-1-benzothiophene-2-sulphonamide], the activation at 1 µM in assay [1] was -1%; in assay [3], 19%; at adrenergic α1A receptor it was 0%; at adrenergic α2C receptor [5], -1%; on dopaminergic D3 receptor, 60%; at dopaminergic D2 receptor [8], 37%. Besides, the inhibition at 1 µM in assay [1] is 41%; in [2] it was -4%; in assay [3], 20%; at adrenergic α1A receptor, 100%; in [4], 95%; on adrenergic α2C receptor [5], 6%. Moreover, the inhibition at 1 µM on dopaminergic D2 receptor [6] is 97%; at dopaminergic D3 receptor, -1%; on muscarinic M3 receptor, 5%; on adrenergic α2C receptor [7], 100%; on dopaminergic D2 receptor [8], 98%.

As to `O=S(=O)(NCCCCN1CCN(c2cccc3[nH]ccc23)CC1)c1cc2ccc(Cl)cc2s1` [Compound 363, 6-Chloro-N-[4-[4-(1H-indol-4-yl)piperazin-1-yl]butyl]benzothiophene-2-sulphonamide], the activation at 1 µM in assay [1] was -1%; in assay [3], 6%; at adrenergic α1A receptor, 0%; on adrenergic α2C receptor [5], 17%; at dopaminergic D3 receptor it was 65%; on dopaminergic D2 receptor [8] it was 50%. The inhibition at 1 µM worked out at 62% in assay [1]; 32% in assay [2]; 24% in [3]; 100% at adrenergic α1A receptor; 98% in [4]; 42% at adrenergic α2C receptor [5]. Besides, the inhibition at 1 µM was 99% at dopaminergic D2 receptor [6]; -3% on dopaminergic D3 receptor; 15% on muscarinic M3 receptor; 101% at adrenergic α2C receptor [7]; 94% on dopaminergic D2 receptor [8].

Consider `O=S(=O)(NCCCCN1CCN(c2noc3ccccc23)CC1)c1ccc2ccccc2c1` [Compound 14, N-(4-(4-(1,2-Benzoxazol-3-yl)piperazin-1-yl)butyl)naphthalene-2-sulphonamide], for which the activation at 1 µM in [1] is 1%; in assay [9], 1%; in assay [3], -1%; at adrenergic α1A receptor it was 0%; at adrenergic α2C receptor [5], -3%; at dopaminergic D3 receptor, -15%. For the same compound, on dopaminergic D2 receptor [8], the activation at 1 µM amounted to 4%. In addition, the inhibition at 1 µM in assay [1] was determined as 100%; in assay [9] it was 69%; in assay [2], 3%; in [3], 85%; at adrenergic α1A receptor, 100%; in assay [4] it was 100%. For the same compound, the inhibition at 1 µM is 12% at adrenergic α2C receptor [5]; 99% on dopaminergic D2 receptor [6]; 92% on dopaminergic D3 receptor; -6% on muscarinic M3 receptor; 100% at adrenergic α2C receptor [7]; 98% at dopaminergic D2 receptor [8].

As for `Cc1cccc(S(=O)(=O)NCCCN2CCC(c3noc4cc(F)ccc34)CC2)c1` [Compound 22, N-[3-[4-(6-Fluoro-1,2-benzoxazol-3-yl)piperidin-1-yl]propyl]-3-methylbenzenesulphonamide], the activation at 1 µM in [1] is -1%; in [9], 1%; in [3], -1%; on adrenergic α1A receptor it was 0%; at adrenergic α2C receptor [5], -8%; at dopaminergic D3 receptor it was -25%. The activation at 1 µM on dopaminergic D2 receptor [8] worked out at 2%. Moreover, the inhibition at 1 µM in assay [1] is 102%; in assay [9] it was 82%; in assay [2] it was 44%; in [3], 100%; at adrenergic α1A receptor it was 100%; in assay [4] it was 99%. Further, the inhibition at 1 µM at adrenergic α2C receptor [5] turned out to be 12%; at dopaminergic D2 receptor [6], 96%; on dopaminergic D3 receptor, 81%; at muscarinic M3 receptor, 12%; at adrenergic α2C receptor [7], 100%; at dopaminergic D2 receptor [8] it was 99%.

For the compound `O=S(=O)(NCCCCN1CCC(c2noc3cc(F)ccc23)CC1)c1cc2ccccc2s1` [Compound 312, N-[4-[4-(6-Fluoro-1,2-benzoxazol-3-yl)piperidin-1-yl]butyl]benzothiophene-2-sulphonamide], the activation at 1 µM was -2% in assay [1]; -1% in assay [9]; -2% in assay [3]; 0% at adrenergic α1A receptor; 61% on adrenergic α2C receptor [5]; 10% on dopaminergic D3 receptor. Besides, on dopaminergic D2 receptor [8], the activation at 1 µM turned out to be 4%. The inhibition at 1 µM in assay [1] is 98%; in assay [9] it was 76%; in [2] it was 35%; in [3], 97%; at adrenergic α1A receptor it was 100%; in [4] it was 99%. For the same compound, the inhibition at 1 µM came out at 39% at adrenergic α2C receptor [5]; 99% on dopaminergic D2 receptor [6]; 97% on dopaminergic D3 receptor; 19% at muscarinic M3 receptor; 92% at adrenergic α2C receptor [7]; 90% on dopaminergic D2 receptor [8].
